# Measurements published in patent publication US20070142478A1, “COMBINATION ANTIMICROBIAL COMPOSITION AND METHOD OF USE” (priority 2005, published 2007).
# Entries after “also recorded” stand apart in the source; their conditions may differ.
# Legend:
# Adenovirus Type-19 = experiment: Viral Suspension Assay, Adenovirus Type-19; type: cell-based
# Description: (§1) The Viral Suspension Assay was used to evaluate the antiviral properties of Alexidine against Adenovirus Type-4, Adenovirus Type-8 and Adenovirus Type-19 and Cytomegalovirus when exposed in suspension for 1, 2, 5, and 10 minutes. The presence of virus (infectivity) was determined by monitoring the virus specific cytopathic effect (CPE) on an appropriate indicator cell line, rabbit kidney. Results are reported as Percent (%) Reduction in virus titer as compared to the corresponding virus control titer (Table 1). The titer of the virus controls were 7.5 log10 following the one minute exposure time; 7.0 log10 following the two minute exposure time; and 7.75 log10 following both the five and ten minute exposure times.
# [1] = test system: Herpes simplex virus type 1; experiment: Viral Suspension Assay, HSV-1; type: cell-based; conditions: 30 ppm and 99 ppm
# Description: as §1, with “Herpes simplex virus type 1” for “Adenovirus Type-4, Adenovirus Type-8 and Adenovirus Type-19 and Cytomegalovirus”
# Adenovirus Type-4 = experiment: Viral Suspension Assay, Adenovirus Type-4; type: cell-based
# Description: as §1
# Adenovirus Type-8 = experiment: Viral Suspension Assay, Adenovirus Type-8; type: cell-based
# Description: as §1
# Cytomegalovirus = experiment: Viral Suspension Assay, Cytomegalovirus; type: cell-based; conditions: 30 ppm and 99 ppm
# Description: as §1
# Aspergillus = conditions: 0.02%; cited from earlier work
compound,measurement,setting,value
"CCCCC(CC)CNC(=N)NC(=N)NCCCCCCNC(=N)NC(=N)NCC(CC)CCCC (stereo not drawn) [Alexidine, 1,1′-hexamethylene-bis[5-(2-ethylhexyl)biguanide]]",Percent Reduction (%),"Adenovirus Type-19; Alexidine 30 ppm and 99 ppm, 1, 2, 5 and 10 minutes",No reduction
same,Effectiveness against Adenovirus Type-19 (in words),Adenovirus Type-19; particular strain tested,did not appear to be effective
same,Effectiveness against HSV-1 (in words),[1],effective agents; also recorded: potent antimicrobial agent
same,Effectiveness against Adenovirus Type-4 (in words),Adenovirus Type-4; 30 ppm and 99 ppm,somewhat effective
same,Percent Reduction (%),"Adenovirus Type-4; Alexidine 30 ppm, 1 minute",43.8%
same,Percent Reduction (%),"Adenovirus Type-4; Alexidine 30 ppm, 10 minutes",68.4%
same,Percent Reduction (%),"Adenovirus Type-4; Alexidine 99 ppm, 1 minute",68.4%
same,Percent Reduction (%),"Adenovirus Type-4; Alexidine 99 ppm, 5 minutes",43.8%
same,Percent Reduction (%),"Adenovirus Type-4; Alexidine 99 ppm, 10 minutes",68.4%
same,Effectiveness against Adenovirus Type-8 (in words),Adenovirus Type-8; 30 ppm and 99 ppm,somewhat effective
same,Percent Reduction (%),"Adenovirus Type-8; Alexidine 30 ppm, 10 minutes",90.0%
same,Percent Reduction (%),"Adenovirus Type-8; Alexidine 99 ppm, 5 minutes",90.0%
same,Percent Reduction (%),"Adenovirus Type-8; Alexidine 99 ppm, 10 minutes",90.0%
same,Effectiveness against Cytomegalovirus (in words),Cytomegalovirus,somewhat effective
polyhexamethylene biguanide,Effectiveness in experimental Aspergillus keratitis (in words),Aspergillus,moderately effective
